The target of one series is mushroom tyrosinase. The experiment in a line: Tyrosinase enzyme inhibition assay. It is filed as biochemical. The settings on record: pure compounds; mean ± S.D., triplicate independent experiments. The protocol: Maplifa was prepared by new methods developed in the laboratory. Briefly, leaves of red maple were dried and macerated in aqueous ethanol to obtain the crude extract which was then further purified on a resin column to remove chlorophyll and other plant pigments.

In series [1] the test system is B16F10 cells. The experiment in a line: MTS cell viability assay. It is filed as cell-based, murine. The settings on record: 72 h; for B16F10 cell viability: vs untreated control. The protocol: To further investigate the anti-melanogenic activities of ginnalinginnalins A-C, present in the Maplifa extract, cellular based assay were employed to measure the melanin content on murine melanoma B16F10 cells. In order to determine the non-toxic concentrations of ginnalinginnalins for cellular assays, cell viability on B16F10 cells were first evaluated by using MTS assay. The MTS assay was carried out as described previously with modifications. At the end of either 24, 48 or 72 h of treatment with test samples (in the concentration range of 1-100 μM for purified gallotannins and 6.25-200 μg/mL for Maplifa extract), 20 μL of the MTS reagent, in combination with the electron coupling agent, phenazine menthosulfate, were added to the wells and cells were incubated at 37° C. in a humidified incubator for 3 h. Absorbance at 490 nm was monitored with a spectrophotometer (SpectraMax M2, Molecular Devices Corp., operated by SoftmaxPro v.4.6 software, CA, USA) to obtain the number of cells relative to control populations. […] Data was presented as mean values±S.D. and were obtained from three separate experiments. Two-tailed unpaired student's t-test was used for statistical analysis of the data using the Office Excel 2010 software. A p value <0.05 was considered significant.
Murine melanoma B16F10 was purchased from the American Type Culture Collection (Rockville, Md.). Cells were cultured in Dulbecco's Modified Eagle Medium (DMEM) medium (Wilkem Scientific, R.I.) that was supplemented with 10% v/v fetal bovine serum, 1% v/v nonessential amino acids and 1% v/v antibiotic solution at 37° C. in 5% CO2. Samples were dissolved at a concentration of 50 mg/mL in dimethylsulfoxide (DMSO) as stock solution and then diluted to the desired final concentrations with growth medium. […]
Melanoma B16F10 cells were treated with serial concentrations of Maplifa (6.25, 12.5, 25, 50, 100, and 200 μg/mL) for 48 and 72 h. In addition, various concentrations (0, 5, 10, 25, and 50 μM) of ginnalinginnalins A-C for 72 h and the cell viabilities were determined by comparing with the untreated control group. […]
Background: Tetrazolium dyes change colour on reduction, which living cells bring about.

Series [2] concerns B16F10 cells. The experiment in a line: Melanin content in B16F10 cells. The note with it: for melanin content compared to control group: 72 h. It is filed as cell-based, murine. The protocol:
The contents of biosynthesized melanin in melanoma B16F10 cells that treated with ginnalinginnalins A-C at serial concentrations were evaluated by comparing with the control group. The melanin content was determined using a modification of the method described by Liang and Ho. Briefly, B16F10 cells (5×10^4 cells/well) were first seeded in 24-well plates for 24 h and then medium was changed with new DMEM medium containing test samples of various concentrations. After 72 h incubation, the cells were harvested through trypsinization and washed with phosphate-buffered saline (PBS) twice. Then cells were lyzed with 1 N NaOH containing 10% DMSO and heated at 80° C. for 1 h. After samples cooled down to room temperature, the amount of melanin content was spectrophotometrically measured at 400 nm.

The next series concerns MITF. The experiment in a line: mRNA expression by real-time PCR in B16F10 cells. It is filed as cell-based, murine. The note with it: 10 μM, 48 h and 72 h. The protocol:
(§1) Melanin biosynthesis involves multi-step pathways. In order to determine the molecular mechanisms of inhibitory effects of ginnalins on melanin synthesis, expression levels of melanogenesis related genes, including MITF, TYR, TRP-1 and TRP-2, in B16F10 cells were analyzed by using RT-PCR. The B16F10 cells were planted in 6-well plates at a density of 2.0×10^5 cells/well. After being incubated for 24 h, cells were treated with 2 or 10 μM of ginnalins for 48 or 72 h. Total RNA was isolated from cells using TRIzol reagent (Invitrogen) according to the manufacturer's instructions. One microgram of total RNA was converted to single-stranded cDNA using oligo(dT)18 primers, and mRNA levels were quantified by quantitative real-time PCR using a Roche LightCycler detection system (Roche Applied Science, Mannheim, Germany). Samples were run by using SYBR Green and compared with levels of b2m rRNA as a reference housekeeping gene. Quantitative real-time PCR conditions were optimized for each gene using appropriate forward and reverse primers. The primers used are listed in Supplemental material. All oligonucleotides were synthesized by Invitrogen Inc., CA.
For orientation: In qPCR the cycle at which signal appears reflects the starting amount.

For another series, the system named is TRP-1. The experiment in a line: mRNA expression by real-time PCR in B16F10 cells. It counts as cell-based, murine. The note with it: 10 μM, 48 h and 72 h. The protocol: as §1
The subject of series [3] is TRP-2. Briefly: mRNA expression by real-time PCR in B16F10 cells. It counts as cell-based, murine. The note with it: 10 μM, 48 h and 72 h. The protocol: as §1
In another series the test system is TYR. Briefly: mRNA expression by real-time PCR in B16F10 cells. It is filed as cell-based, murine. The settings on record: 10 μM; for TYR mRNA expression: 48 h and 72 h. The protocol:
as §1

For series [4], the system named is TRP-2. Briefly: Protein expression by Western blot in B16F10 cells. It counts as cell-based, murine. The settings on record: 10 μM, 72 hours. The protocol:
Furthermore, the regulation of ginnalins on the protein expressions of melanogenesis related enzymes in B16F10 cells were evaluated by using Western blot. Expressions of melanin biosynthesis-related proteins, including MITF, TYR, TRP-1 and TRP-2 expression in B16F10 cells were measured by western blot. After incubation with ginnalins for 72 h, proteins from cells were resolved by SDS-PAGE and then transferred to polyvinylidene fluoride membrane. The membrane was blocked with 5% nonfat dry milk in Tris-buffered saline with Tween followed by incubation with primary antibodies overnight. Bands were visualized on X-ray film using an ECL detection kit (Amersham Biosciences, Piscataway, N.J.). A list of antibody, source, and dilution is listed in Supplementary material.
(In general: Immunoblotting shows a protein as a band on a membrane.)

Here are results for 4 molecules from US10155738B2, “Methods for skin whitening using a gallotannin” (RHODE ISLAND BOARD OF EDUCATION, STATE OF RHODE ISLAND & …, priority 2014, dated 2018).

Take `OC[C@H]1O[C@@H](Oc2ccc(O)cc2)[C@H](O)[C@@H](O)[C@@H]1O` [Arbutin, reference compound]: on mushroom tyrosinase, the midpoint of inhibition, the IC50, lay at 63 ± 0.3 µM.
In the case of `O=C(OC[C@H]1OC[C@H](OC(=O)c2cc(O)c(O)c(O)c2)[C@@H](O)[C@@H]1O)c1cc(O)c(O)c(O)c1` [Ginnalin A], 182 µM corresponded to half-maximal inhibition on mushroom tyrosinase (IC50). For the same molecule, the B16F10 cell viability was 87.0% in the series with B16F10 cells [1] (25 μM) and 89.5% in the series on B16F10 cells [1] (50 μM). Besides, in the series on B16F10 cells [1] (low concentrations (5 and 10 μM)), the “toxicity to B16F10 cells” value is “non-toxic”. The “melanin content compared to control group” value with B16F10 cells [2] (25 μM) is 79.1%; with B16F10 cells [2] (50 μM) it was 56.7%. The “effect on melanin content” value in the series with B16F10 cells [2] (50 μM) is reported as “clearly reduced”. For the same molecule, the “MITF mRNA expression” value with MITF is on record as “significantly reduced”. Besides, the “TRP-1 mRNA expression” value in the series with TRP-1 is recorded as “significantly reduced”. Also, the “TRP-2 mRNA expression” value in the series with TRP-2 [3] was “significantly reduced”. Further, in the series on TYR, the “TYR mRNA expression” value was “significantly reduced”. Further, the “decrease of TRP-2 protein expression” value in the series with TRP-2 [4] is recorded as 87.9%.
As to `O=C(OC[C@H]1OC[C@H](O)[C@@H](O)[C@@H]1O)c1cc(O)c(O)c(O)c1` [Ginnalin B], on mushroom tyrosinase, the IC50 (as a rule, the concentration needed to halve the response being measured) was determined as 1050 µM. For the same molecule, in the series with B16F10 cells [2], the “anti-melanogenic effects in B16F10 cells” value is “only minor anti-melanogenic effects”. The “melanin content compared to control group” value in the series on B16F10 cells [2] (25 μM) and in the series with B16F10 cells [2] (50 μM) was 90.0% throughout. In the series on MITF, the “MITF mRNA expression” value is on record as “significantly decreased”. Moreover, the “TRP-1 mRNA expression” value in the series on TRP-1 was “significantly decreased”. In addition, the “TRP-2 mRNA expression” value with TRP-2 [3] is reported as “significantly decreased”. Besides, the “decrease of TYR mRNA expression” value with TYR (48 hours) is listed as 10.0%; with TYR (72 hours), 7.5%. Further, in the series on TRP-2 [4], the “decrease of TRP-2 protein expression” value turned out to be 92.0%.
At mushroom tyrosinase, `O=C(O[C@H]1CO[C@H](CO)[C@@H](O)[C@@H]1O)c1cc(O)c(O)c(O)c1` [Ginnalin C] registered a concentration for half-maximal inhibition (IC50) of 858 µM. For the same molecule, in the series with B16F10 cells [2], the “anti-melanogenic effects in B16F10 cells” value is “only minor anti-melanogenic effects”. Also, the “melanin content compared to control group” value with B16F10 cells [2] (25 μM) was 89.7%; in the series with B16F10 cells [2] (50 μM), 68.8%. Moreover, the “MITF mRNA expression” value in the series on MITF is listed as “significantly down-regulated”. Also, in the series on TRP-1, the “TRP-1 mRNA expression” value is on record as “did not reduce”. Besides, the “TRP-2 mRNA expression” value with TRP-2 [3] was “only slightly decreased”. Moreover, the “TYR mRNA expression” value in the series with TYR is “only slightly decreased”. Moreover, the “decrease of TRP-2 protein expression” value in the series on TRP-2 [4] came to 69.5%.
